The structures appear in SMILES notation. Converted amounts (≈) assume the structure as drawn. *1 amine or outer side, *2 acyl side, *3 side chain or, on linkers, in order; H or OH if unused. Where a SMILES comes first, the peptide text is derived from it. Bridges are numbered along the chain shown (N, C = ends). [ ]: non-standard residue; d: D form. The star is where a group is joined. hTyr(3S-OH,4S-OH,3'-OSO3H) = N[C@H](C(=O)O)[C@H](O)[C@@H](O)c1ccc(O)c(OS(=O)(=O)O)c1; pTerphenylCO(4''-OnC5H11) = CCCCCOc1ccc(-c2ccc(-c3ccc(C(=O)*)cc3)cc2)cc1; Orn(4R-OH,5R-OH) = O=C([C@H](C[C@@H](O)[C@@H](O)N[*:3])N[*:1])[*:2]; hTyr(3S-OH,4S-OH) = N[C@H](C(=O)O)[C@H](O)[C@@H](O)c1ccc(O)cc1; Pro(3S-OH,4S-Me) = C[C@H]1CN[C@H](C(=O)O)[C@H]1O; X1 = CCCCCOc1ccc(-c2cc(-c3ccc(C(=O)*)cc3)no2)cc1; Gln(3R-OH) = NC(=O)C[C@@H](O)[C@H](N)C(=O)O; Hyp = O=C(O)[C@@H]1C[C@@H](O)CN1

Assay type in all cases: functional
In experiment [1] the test system is Candida albicans. The experiment can be described thus: Antimicrobial activity against Candida albicans clinical isolate biofilm by broth microdilution method. Background: Dilution methods test growth across graded concentrations, often in twofold steps.
For experiment [2], the system named is Candida albicans. The experiment can be described thus: Antimicrobial activity against Candida albicans GDH 2346 sessile cells by microtiter plated based assay.
In experiment [3] the test system is Candida albicans. The experiment can be described thus: Antimicrobial activity against Candida albicans clinical isolates planktonic cells by broth microdilution method.
Experiment [4] relates to Candida albicans. Kind of experiment: Antimicrobial activity against Candida albicans clinical isolate sessile cells by microtiter plated based assay.
The test system of experiment [5] is Candida albicans. The experiment can be described thus: Antimicrobial activity against Candida albicans GDH 2346 planktonic cells by broth microdilution method.

Take `CCCCCOc1ccc(-c2ccc(-c3ccc(C(=O)N[C@H]4C[C@@H](O)[C@@H](O)NC(=O)[C@@H]5[C@@H](O)[C@@H](C)CN5C(=O)[C@H]([C@@H](C)O)NC(=O)[C@H]([C@H](O)[C@@H](O)c5ccc(O)cc5)NC(=O)[C@@H]5C[C@@H](O)CN5C(=O)[C@H]([C@@H](C)O)NC4=O)cc3)cc2)cc1` [ANIDULAFUNGIN] ({pTerphenylCO(4''-OnC5H11)}-[Orn(4R-OH,5R-OH)]T[Hyp][hTyr(3S-OH,4S-OH)]T[Pro(3S-OH,4S-Me)]; lactam 1-C): in experiment [1], the MIC90 is at most 0.03 µg/mL.

As to `CC[C@H](C)C[C@H](C)CCCCCCCCC(=O)N[C@H]1C[C@@H](O)[C@@H](NCCN)NC(=O)[C@@H]2[C@@H](O)CCN2C(=O)[C@H]([C@H](O)CCN)NC(=O)[C@H]([C@H](O)[C@@H](O)c2ccc(O)cc2)NC(=O)[C@@H]2C[C@@H](O)CN2C(=O)[C@H]([C@@H](C)O)NC1=O` [CASPOFUNGIN], the MIC90 in experiment [1] turned out to be 2 µg/mL (≈ 1.83 µM).

As for `CCCCCOc1ccc(-c2cc(-c3ccc(C(=O)N[C@H]4C[C@@H](O)[C@@H](O)NC(=O)[C@@H]5[C@@H](O)[C@@H](C)CN5C(=O)[C@H]([C@H](O)CC(N)=O)NC(=O)[C@H]([C@H](O)[C@@H](O)c5ccc(O)c(OS(=O)(=O)O)c5)NC(=O)[C@@H]5C[C@@H](O)CN5C(=O)[C@H]([C@@H](C)O)NC4=O)cc3)no2)cc1` [MICAFUNGIN] (X1-[Orn(4R-OH,5R-OH)]T[Hyp][hTyr(3S-OH,4S-OH,3'-OSO3H)][Gln(3R-OH)][Pro(3S-OH,4S-Me)]; lactam 1-C), the MIC – broadly, the smallest concentration in the dilution series that meets the test's criterion for growth inhibition – in experiment [2] came out at 0.53 µg/mL (≈ 0.417 µM); in experiment [5], 0.06 µg/mL (≈ 0.0472 µM). The values for the MIC50 in experiment [3] and in experiment [4] were 0.125 µg/mL (≈ 0.0984 µM) and 0.5 µg/mL (≈ 0.394 µM), respectively. The MIC90 in experiment [3] is 0.125 µg/mL (≈ 0.0984 µM); in experiment [4], 0.5 µg/mL (≈ 0.394 µM).

These data come from ChEMBL document CHEMBL1649450, “In vitro activity of micafungin against planktonic and sessile Candida albicans isolates” (2009).
